From patent US7732568B2, “Methods for preventing and treating Alzheimer's disease” (AFFIRIS Forschungs-und Entwicklungs GmbH, priority 2003, dated 2010)
“Also recorded” adds a separate entry of the source. Where no end group is shown, it is not given here.

Tests used:
[1] = system: biotinylated monoclonal antibody specific for DAEFRH (natural N-terminal Aβ42 sequence); assay: Inhibition assay for additional mimotopes (competition ELISA), Example 4 (FIGS. 4 and 5); assay type: binding, mice; details: for inhibition of binding of the monoclonal antibody to the original epitope (in words) / IC50 of inhibition of monoclonal antibody recognition of the original epitope: FIGS. 4 and 5; for Inhibitory capacity of mimotopes (Table 2): summary grade: strong, intermediate, weak, none; for IC50 of inhibition of monoclonal antibody recognition of the original epitope: plate-bound DAEFRH-BSA 0.1 μg/ml, peptides at different concentrations, 20 min, 37° C.
Description: (§1) FIGS. 4 and 5 describe the results of inhibition assays performed with mimotope peptides included in and obtained from the 5 libraries (as described). The mimotope peptides compete with the original epitope for recognition by the monoclonal antibody. Original epitope and mimotope peptides contain an additional C at the C-terminus (position 7) for coupling to a protein carrier (if desired).
(§2) After blocking with PBS/BSA 1% (200 μl/well, 12 h, 4° C.), the plates are washed 3× times with PBS/Tween. Then, biotinylated monoclonal antibody (1:2000, 50 μl/well) and peptides (50 μl/well) at different concentrations are added for 20 min. at 37° C. The plates are washed 3× times with PBS/Tween and are incubated with horseradish peroxidase (HRP)-labeled streptavidin (100 μl/well, 30 min, RT). The plates are washed 5× times with PBS/Tween and are incubated with ABTS H2O2 (0.1% w/v, 10 to 45 min) and the reaction is stopped with citric acid followed by photometric evaluation (wavelength 405 nm).

[2] = system: biotinylated monoclonal antibody specific for DAEFRH (natural N-terminal Aβ42 sequence); assay: Inhibition assay (competition ELISA): mimotope peptides compete with plate-bound DAEFRH-BSA for the monoclonal antibody, Example 3 (FIGS. 2 and 3); assay type: binding, mice; details: for inhibition of binding of the monoclonal antibody to the original epitope (in words): peptides at 50 to 0.0005 μg/ml, FIGS. 2 and 3; for Inhibitory capacity of mimotopes (Table 1): summary grade: strong, intermediate, weak, none
Description: as §1, with “FIGS. 2” for “FIGS. 4”, “and 3” for “and 5”, “C-terminus” for “C-terminus (position 7)”
as §2, with “50, 5, 0.5, 0.05, 0.005, and 0.0005 μg/ml” for “different concentrations”, “ABTS+H2O2” for “ABTS H2O2”

[3] = system: biotinylated DAEFRH-specific mAb; assay: ELISA with peptide libraries: detection of mimotopes by the DAEFRH-specific mAb; assay type: binding, mice; details: mimotopes from peptide libraries 1, 2 and 3
Description: The ELISA with each of the peptide libraries have been carried out following standard protocols:
The peptide library is dissolved in 100% DMSO (final concentration 10 mg/ml).
The peptide solution is further diluted in PBS.
The peptide mixture is coated overnight (4° C.) onto ELISA plates (Nunc Maxisorp, Germany), starting with 500 μg/well, and titrated to 100 ng/well.
The plates are washed 3× times with PBS/Tween 20 (0.1% v/v).
The plates are blocked with PBS/BSA (2 h at room temperature).
The plates are washed 3× times with PBS/Tween.
The plates are incubated with biotinylated DAEFRH-specific mAb (DAEFRH sequence disclosed as SEQ ID NO: 1) (10 μg/ml in PBS) for 4 h at room temperature.
The plates are incubated with streptavidin-horseradish-peroxidase (30 min at room temperature).
The plates are washed 5× times with PBS/Tween.
The plates are incubated with ABTS+H2O2 (0.1% w/v; 10 to 45 min) and the reaction is stopped with citric acid followed by photometric evaluation (wavelength 405 nm).

[4] = molecular target: DAEFRH-specific monoclonal antibody (mAb) produced according to example 1; assay: competition ELISA: soluble peptide vs plate-bound DAEFRH-C-BSA for biotinylated mAb, FIG. 5

Row | inhibition of binding of the monoclonal antibody to the original epitope (in words) [1] | inhibition of binding of the monoclonal antibody to the original epitope (in words) [2] | Molecule | Inhibitory capacity of mimotopes (Table 1) [2] | other results
1 | block epitope recognition | – | CC[C@H](C)[C@H](NC(=O)[C@H](CCCNC(=N)N)NC(=O)[C@H](CC(C)C)NC(=O)[C@H](CCC(=O)O)NC(=O)[C@H](CCCNC(=N)N)NC(=O)[C@@H](N)CC(=O)O)C(=O)N[C@@H](CS)C(=O)O [Peptide 1235, DRELRI] | – | Inhibitory capacity of mimotopes (Table 2) [1]: strong
2 | block epitope recognition | – | CC[C@H](C)[C@H](NC(=O)[C@H](CCCCN)NC(=O)[C@H](CC(C)C)NC(=O)[C@H](CCC(=O)O)NC(=O)[C@H](CCCCN)NC(=O)[C@@H](N)CC(=O)O)C(=O)N[C@@H](CS)C(=O)O [Peptide 1236, DKELKI] | – | Inhibitory capacity of mimotopes (Table 2) [1]: weak
3 | block epitope recognition | – | CC[C@H](C)[C@H](NC(=O)[C@H](CCCCN)NC(=O)[C@H](CC(C)C)NC(=O)[C@H](CCC(=O)O)NC(=O)[C@H](CCCNC(=N)N)NC(=O)[C@@H](N)CC(=O)O)C(=O)N[C@@H](CS)C(=O)O [Peptide 1237, DRELKI] | – | Inhibitory capacity of mimotopes (Table 2) [1]: weak
4 | block epitope recognition | – | N=C(N)NCCC[C@H](NC(=O)[C@H](Cc1ccccc1)NC(=O)[C@H](CCC(=O)O)NC(=O)[C@H](Cc1ccc(O)cc1)NC(=O)[C@@H](N)CCC(=O)O)C(=O)NCC(=O)N[C@@H](CS)C(=O)O [Peptide 1239, EYEFRG] | – | IC50 of inhibition of monoclonal antibody recognition of the original epitope [1]: more than 0.5 μg/ml; Inhibitory capacity of mimotopes (Table 2) [1]: intermediate
5 | – | block epitope recognition | CC[C@H](C)[C@H](NC(=O)[C@H](CCCNC(=N)N)NC(=O)[C@H](CC(C)C)NC(=O)[C@H](CCC(=O)O)NC(=O)[C@H](CCCCN)NC(=O)[C@@H](N)CC(=O)O)C(=O)N[C@@H](CS)C(=O)O [Peptide 3001, DKELRI] | strong | –
6 | – | block epitope recognition | CC[C@H](C)[C@H](NC(=O)[C@H](CCCNC(=N)N)NC(=O)[C@H](CC(C)C)NC(=O)[C@H](CCC(=O)O)NC(=O)[C@H](Cc1c[nH]c2ccccc12)NC(=O)[C@@H](N)CC(=O)O)C(=O)N[C@@H](CS)C(=O)O [Peptide 3002, DWELRI] | intermediate | –
7 | – | block epitope recognition | C[C@H](NC(=O)[C@@H](N)Cc1ccc(O)cc1)C(=O)N[C@@H](CCC(=O)O)C(=O)N[C@@H](Cc1ccccc1)C(=O)N[C@@H](CCCNC(=N)N)C(=O)NCC(=O)N[C@@H](CS)C(=O)O [Peptide 3005, YAEFRG] | intermediate | –
8 | – | block epitope recognition | C[C@H](NC(=O)[C@@H](N)CCC(=O)O)C(=O)N[C@@H](CCC(=O)O)C(=O)N[C@@H](Cc1ccccc1)C(=O)N[C@@H](CCCNC(=N)N)C(=O)NCC(=O)N[C@@H](CS)C(=O)O [Peptide 3006, EAEFRG] | strong | –
9 | – | block epitope recognition | N=C(N)NCCC[C@H](NC(=O)[C@H](Cc1ccccc1)NC(=O)[C@H](CCC(=O)O)NC(=O)[C@H](Cc1ccc(O)cc1)NC(=O)[C@@H](N)CC(=O)O)C(=O)NCC(=O)N[C@@H](CS)C(=O)O [Peptide 3007, DYEFRG] | strong | –
10 | – | – | CC(C)C[C@H](NC(=O)[C@@H](N)CCC(=O)O)C(=O)N[C@@H](CCC(=O)O)C(=O)N[C@@H](Cc1ccccc1)C(=O)N[C@@H](CCCNC(=N)N)C(=O)NCC(=O)N[C@@H](CS)C(=O)O [Peptide 3008, ELEFRG] | weak | –
11 | – | – | N=C(N)NCCC[C@H](NC(=O)[C@H](Cc1ccccc1)NC(=O)[C@H](CCC(=O)O)NC(=O)[C@H](Cc1ccccc1)NC(=O)[C@@H](N)CO)C(=O)NCC(=O)N[C@@H](CS)C(=O)O [Peptide 3009, SFEFRG] | weak | –
12 | block epitope recognition | – | C[C@@H](O)[C@H](NC(=O)[C@H](CCCNC(=N)N)NC(=O)[C@H](Cc1ccccc1)NC(=O)[C@H](CCC(=O)O)NC(=O)[C@H](Cc1c[nH]c2ccccc12)NC(=O)[C@@H](N)CO)C(=O)N[C@@H](CS)C(=O)O [Peptide 4002, SWEFRT] | – | IC50 of inhibition of monoclonal antibody recognition of the original epitope [1]: less than 0.4 μg/ml; Inhibitory capacity of mimotopes (Table 2) [1]: strong
13 | – | – | DIDYHR | – | detection by the monoclonal antibody produced according to example 1 [3]: can be detected
14 | – | – | DIDYRR [DLDYRR (SEQ ID NO: 97)] | – | detection by the monoclonal antibody produced according to example 1 [3]: can be detected
15 | – | – | DLDYHR | – | detection by the monoclonal antibody produced according to example 1 [3]: can be detected
16 | – | – | DLDYRR [DLDYRR (SEQ ID NO: 98)] | – | detection by the monoclonal antibody produced according to example 1 [3]: can be detected
17 | – | – | DVDYHR | – | detection by the monoclonal antibody produced according to example 1 [3]: can be detected
18 | – | – | DVDYRR | – | detection by the monoclonal antibody produced according to example 1 [3]: can be detected
19 | – | – | EIDYHR | – | detection by the monoclonal antibody produced according to example 1 [3]: can be detected
20 | – | – | ELDYHR | – | detection by the monoclonal antibody produced according to example 1 [3]: can be detected
21 | – | – | EVDYHR | – | detection by the monoclonal antibody produced according to example 1 [3]: can be detected
22 | block epitope recognition | – | GREFRN [Peptide 4003] | – | concentration at which the peptide is only inhibitory ([1]; FIG. 4): 10 µg/mL; Inhibitory capacity of mimotopes (Table 2) [1]: weak
23 | – | block epitope recognition | YREFRI [Peptide 3004] | weak | concentration at which the peptide is only inhibitory ([2]; FIG. 2): 50 µg/mL
24 | – | – | DRELRIC [Peptide 1235 DRELRI] | – | IC50 [4]: < 0.5 µg/mL
25 | – | – | DWEFRDAC [Peptide 1241 DWEFRDA] | – | IC50 [4]: < 0.5 µg/mL
26 | – | – | DKELRC [Peptide 1238 DKELR] | – | IC50 [4]: < 0.5 µg/mL

Row | Molecule | inhibition of binding of the monoclonal antibody to the original epitope (in words) [1] | inhibition of binding of the monoclonal antibody to the original epitope (in words) [2] | Inhibitory capacity of mimotopes (Table 1) [2] | other results
27 | C[C@H](NC(=O)[C@H](CC(=O)O)NC(=O)[C@H](CCCNC(=N)N)NC(=O)[C@H](Cc1ccccc1)NC(=O)[C@H](CCC(=O)O)NC(=O)[C@H](Cc1c[nH]c2ccccc12)NC(=O)[C@@H](N)CC(=O)O)C(=O)N[C@@H](CS)C(=O)O [Peptide 1241, DWEFRDA] | block epitope recognition | – | – | Inhibitory capacity of mimotopes (Table 2) [1]: strong
28 | DAEFRH (not fully specified (C-terminus)) [Peptide 1737, reference compound] | inhibits recognition by the monoclonal antibody; also recorded: can successfully compete | inhibits recognition by the monoclonal antibody; also recorded: can successfully compete | – | –
29 | DIGWRG [Peptide 3011] | – | not inhibitory at the concentrations tested | none | –
30 | DISFRG [Peptide 3010] | – | not inhibitory at the concentrations tested | none | –
31 | KKELRI [Peptide 1234] | hardly inhibitory at the concentrations tested | – | – | Inhibitory capacity of mimotopes (Table 2) [1]: none
32 | WHWSWR [Peptide 4004] | not able to inhibit binding of the monoclonal antibody to the original epitope | – | – | Inhibitory capacity of mimotopes (Table 2) [1]: none
33 | YREFFI [Peptide 3003] | – | not able to inhibit binding of the monoclonal antibody to the original epitope | none | –
